Measured values reported in PubChem BioAssay AID1963840 (Molecular Pharmacology Branch, DTP, NCI, 2024).

System: 695427-040-R-J1-PDC complex spheroid viability
Experiment: Anticancer human tumor 695427-040-R-J1-PDC patient-derived colon adenocarcinoma cell line growth inhibition [POLQ]
Details: for IC50: curve of first compound; for viability, T/C: stronger effect = lower value
Method in brief: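 PDC + HUVEC + MSC complex spheroids; POLQ inhibitors ± partner drugs; top conc. at/near clinical Cmax, else 10 microM (SN-38 1 microM), half-log dilutions; 37 degrees C, 5% CO2.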

[1] = second compound 0.0316 µM, first compound 0.0316 µM
[2] = second compound 0.0316 µM, first compound 0.1 µM
[3] = second compound 0.0316 µM, first compound 0.316 µM
[4] = second compound 0.0316 µM, first compound 1 µM
[5] = second compound 0.0316 µM, first compound 3.16 µM
[6] = second compound 0.0316 µM, first compound 10 µM
[7] = second compound 0.1 µM, first compound 0.0316 µM
[8] = second compound 0.1 µM, first compound 0.1 µM
[9] = second compound 0.1 µM, first compound 0.316 µM
[10] = second compound 0.1 µM, first compound 1 µM
[11] = second compound 0.1 µM, first compound 3.16 µM
[12] = second compound 0.1 µM, first compound 10 µM
[13] = second compound 0.316 µM, first compound 0.0316 µM
[14] = second compound 0.316 µM, first compound 0.1 µM
[15] = second compound 0.316 µM, first compound 0.316 µM
[16] = second compound 0.316 µM, first compound 1 µM
[17] = second compound 0.316 µM, first compound 3.16 µM
[18] = second compound 0.316 µM, first compound 10 µM
[19] = second compound 1 µM, first compound 0.0316 µM
[20] = second compound 1 µM, first compound 0.1 µM
[21] = second compound 1 µM, first compound 0.316 µM
[22] = second compound 1 µM, first compound 1 µM
[23] = second compound 1 µM, first compound 3.16 µM
[24] = second compound 1 µM, first compound 10 µM
[25] = second compound 3.16 µM, first compound 0.0316 µM
[26] = second compound 3.16 µM, first compound 0.1 µM
[27] = second compound 3.16 µM, first compound 0.316 µM
[28] = second compound 3.16 µM, first compound 1 µM
[29] = second compound 3.16 µM, first compound 3.16 µM
[30] = second compound 3.16 µM, first compound 10 µM
[31] = second compound 10 µM, first compound 0.0316 µM
[32] = second compound 10 µM, first compound 0.1 µM
[33] = second compound 10 µM, first compound 0.316 µM
[34] = second compound 10 µM, first compound 1 µM
[35] = second compound 10 µM, first compound 3.16 µM
[36] = second compound 10 µM, first compound 10 µM
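Note: spheroids exposed to compounds for seven days.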
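Throughout, for viability, T/C: 100% = DMSO vehicle control viability.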

CC1COCCN1c1cc(C2(S(C)(=N)=O)CC2)nc(-c2ccnc3[nH]ccc23)n1 (stereo unspecified) + Cc1cccc(N(C)C(=O)C2C(O)CCN2c2nc(C)cc(C(F)(F)F)c2C#N)c1
IC50 (second compound 0.0316 µM): > 10 µM | IC50 (second compound 0.1 µM): > 10 µM | IC50 (second compound 0.316 µM): > 10 µM | IC50 (second compound 1 µM): > 10 µM | IC50 (second compound 3.16 µM): > 10 µM | IC50 (second compound 10 µM): > 10 µM | viability, T/C [1]: 104% | viability, T/C [2]: 99.1% | viability, T/C [3]: 101% | viability, T/C [4]: 95.1% | viability, T/C [5]: 101% | viability, T/C [6]: 82.5% | viability, T/C [7]: 107% | viability, T/C [8]: 101% | viability, T/C [9]: 98.5% | viability, T/C [10]: 93.8% | viability, T/C [11]: 95.5% | viability, T/C [12]: 81.2% | viability, T/C [13]: 105% | viability, T/C [14]: 95.7% | viability, T/C [15]: 100% | viability, T/C [16]: 93.4% | viability, T/C [17]: 91.7% | viability, T/C [18]: 88.8% | viability, T/C [19]: 91.1% | viability, T/C [20]: 91.6% | viability, T/C [21]: 101% | viability, T/C [22]: 103% | viability, T/C [23]: 107% | viability, T/C [24]: 80.9% | viability, T/C [25]: 103% | viability, T/C [26]: 89.8% | viability, T/C [27]: 89.7% | viability, T/C [28]: 89.9% | viability, T/C [29]: 97% | viability, T/C [30]: 73.9% | viability, T/C [31]: 93.1% | viability, T/C [32]: 96.8% | viability, T/C [33]: 91.9% | viability, T/C [34]: 87.8% | viability, T/C [35]: 92.8% | viability, T/C [36]: 67.1%

COc1ccc([C@@H](O)c2cc(-c3ncnc4cc(N5CCOCC5)ccc34)c(F)cc2Cl)nn1 + Cc1cccc(N(C)C(=O)C2C(O)CCN2c2nc(C)cc(C(F)(F)F)c2C#N)c1
IC50 (second compound 0.0316 µM): > 10 µM | IC50 (second compound 0.1 µM): > 10 µM | IC50 (second compound 0.316 µM): > 10 µM | IC50 (second compound 1 µM): > 10 µM | IC50 (second compound 3.16 µM): 9.23 µM | IC50 (second compound 10 µM): > 10 µM | viability, T/C [1]: 98.6% | viability, T/C [2]: 94.8% | viability, T/C [3]: 101% | viability, T/C [4]: 99% | viability, T/C [5]: 77.5% | viability, T/C [6]: 57.6% | viability, T/C [7]: 103% | viability, T/C [8]: 103% | viability, T/C [9]: 97.4% | viability, T/C [10]: 91.8% | viability, T/C [11]: 85.2% | viability, T/C [12]: 57.3% | viability, T/C [13]: 109% | viability, T/C [14]: 104% | viability, T/C [15]: 103% | viability, T/C [16]: 92.7% | viability, T/C [17]: 78.5% | viability, T/C [18]: 53.6% | viability, T/C [19]: 100% | viability, T/C [20]: 93.8% | viability, T/C [21]: 94% | viability, T/C [22]: 92.1% | viability, T/C [23]: 84.1% | viability, T/C [24]: 52.3% | viability, T/C [25]: 92% | viability, T/C [26]: 101% | viability, T/C [27]: 95.9% | viability, T/C [28]: 87.4% | viability, T/C [29]: 74.5% | viability, T/C [30]: 48.1% | viability, T/C [31]: 97.2% | viability, T/C [32]: 79.7% | viability, T/C [33]: 83.8% | viability, T/C [34]: 78.9% | viability, T/C [35]: 71.6% | viability, T/C [36]: 51%

Cn1ncnc1[C@H]1c2n[nH]c(=O)c3cc(F)cc(c23)N[C@@H]1c1ccc(F)cc1 + Cc1cccc(N(C)C(=O)C2C(O)CCN2c2nc(C)cc(C(F)(F)F)c2C#N)c1
IC50 (second compound 0.0316 µM): > 0.1 µM | IC50 (second compound 0.1 µM): > 0.1 µM | IC50 (second compound 0.316 µM): > 0.1 µM | IC50 (second compound 1 µM): > 0.1 µM | IC50 (second compound 3.16 µM): > 0.1 µM | IC50 (second compound 10 µM): > 0.1 µM | viability, T/C (second compound 0.0316 µM, first compound 0.000316 µM): 99.1% | viability, T/C (second compound 0.0316 µM, first compound 0.001 µM): 97.2% | viability, T/C (second compound 0.0316 µM, first compound 0.00316 µM): 102% | viability, T/C (second compound 0.0316 µM, first compound 0.01 µM): 99% | viability, T/C [1]: 99.4% | viability, T/C [2]: 96.8% | viability, T/C (second compound 0.1 µM, first compound 0.000316 µM): 108% | viability, T/C (second compound 0.1 µM, first compound 0.001 µM): 91.2% | viability, T/C (second compound 0.1 µM, first compound 0.00316 µM): 98.8% | viability, T/C (second compound 0.1 µM, first compound 0.01 µM): 102% | viability, T/C [7]: 102% | viability, T/C [8]: 96.7% | viability, T/C (second compound 0.316 µM, first compound 0.000316 µM): 102% | viability, T/C (second compound 0.316 µM, first compound 0.001 µM): 102% | viability, T/C (second compound 0.316 µM, first compound 0.00316 µM): 96.6% | viability, T/C (second compound 0.316 µM, first compound 0.01 µM): 105% | viability, T/C [13]: 107% | viability, T/C [14]: 94.7% | viability, T/C (second compound 1 µM, first compound 0.000316 µM): 99.2% | viability, T/C (second compound 1 µM, first compound 0.001 µM): 98.3% | viability, T/C (second compound 1 µM, first compound 0.00316 µM): 89.5% | viability, T/C (second compound 1 µM, first compound 0.01 µM): 93.2% | viability, T/C [19]: 99.3% | viability, T/C [20]: 94.6% | viability, T/C (second compound 3.16 µM, first compound 0.000316 µM): 88.9% | viability, T/C (second compound 3.16 µM, first compound 0.001 µM): 101% | viability, T/C (second compound 3.16 µM, first compound 0.00316 µM): 92.5% | viability, T/C (second compound 3.16 µM, first compound 0.01 µM): 101% | viability, T/C [25]: 102% | viability, T/C [26]: 88.8% | viability, T/C (second compound 10 µM, first compound 0.000316 µM): 89.2% | viability, T/C (second compound 10 µM, first compound 0.001 µM): 87.4% | viability, T/C (second compound 10 µM, first compound 0.00316 µM): 87.8% | viability, T/C (second compound 10 µM, first compound 0.01 µM): 88.6% | viability, T/C [31]: 93.3% | viability, T/C [32]: 90.4%
